Test system: mice
Assay: Passive-Avoidance test (modified step-through, fall into cold water bath), amnesia induced by scopolamine, baclofen, mecamylamine or clonidine
Assay type: in vivo, mouse
Settings: for 2nd Day (latency time for entering the dark compartment, retention test after 24 h): max latency 120 s
Description: A slightly modified step-through method described by Jarvik and [Psycol. Rep. […] The apparatus consists of a two-compartment acrylic box with a lighted compartment connected to the darkened one by a guillotine door. In the original method, mice received a punishing electrical shock as soon as they entered the dark compartment, while in our modified method, after entry into the dark compartment, mice receive a non-painful punishment consisting of a fall (from 40 cm ) into a cold water bath (10°C) . For this purpose the dark chamber was constructed with a pitfall floor. The latency times for entering the dark compartment were measured in the training test (first day) and after 24 h in the retention test (second day). […] All investigated drugs were injected 20 min before the training session, while amnesic drugs were injected immediately after termination of the training session. […] The memory degree of received punishment (fall into cold water) was expressed as the increase in seconds between training and retention latencies (see Table 5).

[1] = 0.1 mg kg^-1, + Scopolamine 1.5 mg kg^-1 i.p.
[2] = 0.1 mg kg^-1 injected 20 min before training, + Scopolamine 1.5 mg kg^-1 i.p. after training
[3] = 0.01 mg kg^-1, + Scopolamine 1.5 mg kg^-1 i.p.
[4] = 0.01 mg kg^-1 injected 20 min before training, + Baclofen 2 mg kg^-1 i.p. after training
[5] = 0.01 mg kg^-1 injected 20 min before training, + Scopolamine 1.5 mg kg^-1 i.p. after training
[6] = 10 mg kg^-1 injected 20 min before training, + Mecamilamine 20 mg kg^-1 i.p. after training
[7] = 30 mg kg^-1 injected 20 min before training, + Baclofen 2 mg kg^-1 i.p. after training
[8] = 30 mg kg^-1 injected 20 min before training, + Scopolamine 1.5 mg kg^-1 i.p. after training
[9] = 0.001 mg kg^-1 injected 20 min before training, + Scopolamine 1.5 mg kg^-1 i.p. after training
[10] = 0.1 mg kg^-1 injected 20 min before training, + Baclofen 2 mg kg^-1 i.p. after training
[11] = 0.1 mg kg^-1 injected 20 min before training, + Clonidine 0.125 mg kg^-1 i.p. after training
[12] = 1 mg kg^-1 injected 20 min before training, + Mecamilamine 20 mg kg^-1 i.p. after training
[13] = 1.0 mg kg^-1 injected 20 min before training, + Baclofen 2 mg kg^-1 i.p. after training
[14] = 1.0 mg kg^-1 injected 20 min before training, + Clonidine 0.125 mg kg^-1 i.p. after training
[15] = 10 mg kg^-1 injected 20 min before training, + Scopolamine 1.5 mg kg^-1 i.p. after training
[16] = 20 mg kg^-1 injected 20 min before training, + Mecamilamine 20 mg kg^-1 i.p. after training

## C[C@H]1C[C@@H]2CN(S(=O)(=O)c3ccc(F)cc3)CCN2C1=O [Compound 4a, Exo 8-methyl-4-(4-fluorobenzensolfonyl)-1,4-diazabicyclo[4.3.0]nonan-9-one]
[1]
  Δ (increase in seconds between training and retention latencies): 78.0 s
[2]
  1st Day (latency time for entering the dark compartment, training test): 16.9 ± 6.1 s
  2nd Day (latency time for entering the dark compartment, retention test after 24 h): 94.9 ± 11.2 s

## CCC(=O)N1CCN(S(=O)(=O)c2ccc(F)cc2)CC1 [Compound 8, 4-Propionyl-1-(4-fluorobenzensolfonyl)piperazine]
0.01 mg kg^-1, + Baclofen 2 mg kg^-1 i.p.
  Δ (increase in seconds between training and retention latencies): 86.8 s
[3]
  Δ (increase in seconds between training and retention latencies): 67.9 s
[4]
  1st Day (latency time for entering the dark compartment, training test): 16.3 ± 3.3 s
  2nd Day (latency time for entering the dark compartment, retention test after 24 h): 103.3 ± 13.9 s
[5]
  1st Day (latency time for entering the dark compartment, training test): 15.9 ± 3.2 s
  2nd Day (latency time for entering the dark compartment, retention test after 24 h): 83.8 ± 9.2 s
10 mg kg^-1, + Mecamilamine 20 mg kg^-1 i.p.
  Δ (increase in seconds between training and retention latencies): 90.2 s
[6]
  1st Day (latency time for entering the dark compartment, training test): 16.5 ± 2.7 s
  2nd Day (latency time for entering the dark compartment, retention test after 24 h): 106.7 ± 10.2 s

## O=C(c1ccc(F)cc1)N1CCN2C(=O)CCC2C1 (stereo not shown) [Compound 1, 4-(4-fluorobenzoyl)-1,4-diazabicyclo[4.3.0]nonan-9-one]
[1]
  Δ (increase in seconds between training and retention latencies): 82.2 s
[2]
  1st Day (latency time for entering the dark compartment, training test): 18.1 ± 3.9 s
  2nd Day (latency time for entering the dark compartment, retention test after 24 h): 100.3 ± 10.4 s

## NC(=O)CN1CCCC1=O [Piracetam, piracetam, reference compound]
[7]
  1st Day (latency time for entering the dark compartment, training test): 20.9 ± 4.5 s
30 mg kg^-1 injected 20 min before training, + Clonidine 0.125 mg kg^-1 i.p. after training
  1st Day (latency time for entering the dark compartment, training test): 11.6 ± 3.7 s
30 mg kg^-1 injected 20 min before training, + Mecamilamine 20 mg kg^-1 i.p. after training
  1st Day (latency time for entering the dark compartment, training test): 16.7 ± 4.8 s
[8]
  1st Day (latency time for entering the dark compartment, training test): 17.6 ± 3.6 s

## C[C@@H]1C[C@@H]2CN(C(=O)c3ccc(F)cc3)CCN2C1=O (racemic) [Compound 3b, Endo (±) 8-methyl-4-(4-fluorobenzoyl)-1,4-diazabicyclo[4.3.0]nonan-9-one]
[1]
  Δ (increase in seconds between training and retention latencies): 80.0 s
[2]
  1st Day (latency time for entering the dark compartment, training test): 12.5 ± 5.9 s
  2nd Day (latency time for entering the dark compartment, retention test after 24 h): 104.0 ± 8.6 s

## C[C@H]1C[C@@H]2CN(C(=O)c3ccc(F)cc3)CCN2C1=O (racemic) [Compound 3a, Exo (±) 8-methyl-4-(4-fluorobenzoyl)-1,4-diazabicyclo[4.3.0]nonan-9-one]
[1]
  Δ (increase in seconds between training and retention latencies): 85.6 s
[2]
  1st Day (latency time for entering the dark compartment, training test): 21.8 ± 4.8 s
  2nd Day (latency time for entering the dark compartment, retention test after 24 h): 107.4 ± 10.7 s

## C[C@@H]1C[C@@H]2CN(S(=O)(=O)c3ccc(F)cc3)CCN2C1=O [Compound 4b, Endo 8-methyl-4-(4-fluorobenzensolfonyl)-1,4-diazabicyclo[4.3.0]nonan-9-one]
[1]
  Δ (increase in seconds between training and retention latencies): 96.5 s
[2]
  1st Day (latency time for entering the dark compartment, training test): 21.9 ± 4.7 s
  2nd Day (latency time for entering the dark compartment, retention test after 24 h): 118.4 ± 10.2 s

## O=C1CCC2CN(S(=O)(=O)c3ccc(F)cc3)CCN12 (racemic) [Compound 2, 4-(4-fluorobenzensolfonyl)-1,4-diazabicyclo[4.3.0]nonan-9-one]
0.001 mg kg^-1, + Scopolamine 1.5 mg kg^-1 i.p.
  Δ (increase in seconds between training and retention latencies): 93.8 s
[9]
  1st Day (latency time for entering the dark compartment, training test): 19.7 ± 5.8 s
  2nd Day (latency time for entering the dark compartment, retention test after 24 h): 104.4 ± 10.6 s

## CCC(=O)N1CCN(C(=O)c2ccc(F)cc2)CC1 [Compound 7, 4-Propionyl-1-(4-fluorobenzoyl)piperazine]
30 mg kg^-1, + Baclofen 2 mg kg^-1 i.p.
  Δ (increase in seconds between training and retention latencies): 86.8 s
30 mg kg^-1, + Scopolamine 1.5 mg kg^-1 i.p.
  Δ (increase in seconds between training and retention latencies): 80.5 s
[7]
  1st Day (latency time for entering the dark compartment, training test): 20.6 ± 4.9 s
  2nd Day (latency time for entering the dark compartment, retention test after 24 h): 107.1 ± 11.4 s
[8]
  1st Day (latency time for entering the dark compartment, training test): 11.9 ± 5.6 s
  2nd Day (latency time for entering the dark compartment, retention test after 24 h): 92.4 ± 10.1 s

## CC(=O)N1CCN(S(=O)(=O)c2ccc(F)cc2)CC1 [Compound 6, 4-Acetyl-1-(4-fluorobenzensolfonyl)piperazine]
[3]
  Δ (increase in seconds between training and retention latencies): 79.2 s
[5]
  1st Day (latency time for entering the dark compartment, training test): 19.8 ± 4.1 s
  2nd Day (latency time for entering the dark compartment, retention test after 24 h): 99.0 ± 18.3 s
0.1 mg kg^-1, + Baclofen 2 mg kg^-1 i.p.
  Δ (increase in seconds between training and retention latencies): 80.4 s
0.1 mg kg^-1, + Clonidine 0.125 mg kg^-1 i.p.
  Δ (increase in seconds between training and retention latencies): 77.4 s
[10]
  1st Day (latency time for entering the dark compartment, training test): 11.7 ± 4.1 s
  2nd Day (latency time for entering the dark compartment, retention test after 24 h): 92.1 ± 7.9 s
[11]
  1st Day (latency time for entering the dark compartment, training test): 14.7 ± 3.7 s
  2nd Day (latency time for entering the dark compartment, retention test after 24 h): 92.4 ± 8.1 s
1 mg kg^-1, + Mecamilamine 20 mg kg^-1 i.p.
  Δ (increase in seconds between training and retention latencies): 91.6 s
[12]
  1st Day (latency time for entering the dark compartment, training test): 18.1 ± 3.8 s
  2nd Day (latency time for entering the dark compartment, retention test after 24 h): 109.7 ± 13.6 s

## CC(=O)N1CCN(C(=O)c2ccc(F)cc2)CC1 [Compound 5, 4-Acetyl-1-(4-fluorobenzoyl)piperazine]
1.0 mg kg^-1, + Baclofen 2 mg kg^-1 i.p.
  Δ (increase in seconds between training and retention latencies): 93.2 s
1.0 mg kg^-1, + Clonidine 0.125 mg kg^-1 i.p.
  Δ (increase in seconds between training and retention latencies): 88.1 s
[13]
  1st Day (latency time for entering the dark compartment, training test): 11.4 ± 5.2 s
  2nd Day (latency time for entering the dark compartment, retention test after 24 h): 104.6 ± 10.3 s
[14]
  1st Day (latency time for entering the dark compartment, training test): 8.0 ± 4.1 s
  2nd Day (latency time for entering the dark compartment, retention test after 24 h): 96.1 ± 10.7 s
10 mg kg^-1, + Scopolamine 1.5 mg kg^-1 i.p.
  Δ (increase in seconds between training and retention latencies): 72.6 s
[15]
  1st Day (latency time for entering the dark compartment, training test): 17.5 ± 6.1 s
  2nd Day (latency time for entering the dark compartment, retention test after 24 h): 91.1 ± 9.5 s
20 mg kg^-1, + Mecamilamine 20 mg kg^-1 i.p.
  Δ (increase in seconds between training and retention latencies): 91.7 s
[16]
  1st Day (latency time for entering the dark compartment, training test): 17.0 ± 2.7 s
  2nd Day (latency time for entering the dark compartment, retention test after 24 h): 108.7 ± 3.5 s

— patent EP1118612A1, “Piperazine derivatives possesing nootropic activity” (Universita Degli Studi di Firenze, priority 2000, dated 2001)
